What is called stoichiometry N is a count of units in the complex or per binding partner.

Assay [1] addresses T1, SnxA (full-length SnxA-GFP; DDB_G0289833) (Dictyostelium discoideum, UniProt Q54GY1).
T1 construct: full length (PX domain plus coiled coil); N-terminal 6xHis and eGFP kept; E. coli BL21; mostly dimer, apparent 181 kD by mass photometry
T1 sequence (Q54GY1 1-186): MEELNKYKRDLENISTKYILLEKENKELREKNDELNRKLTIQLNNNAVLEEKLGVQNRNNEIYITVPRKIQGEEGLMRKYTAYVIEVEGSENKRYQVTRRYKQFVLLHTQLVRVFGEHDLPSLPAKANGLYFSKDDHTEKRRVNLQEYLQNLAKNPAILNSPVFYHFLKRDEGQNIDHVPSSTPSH
Kind of assay: microscopy of GFP recruitment to membrane-coated beads, probe titration. The settings on record: 5 mol% phosphoinositide in 95 mol% POPC bilayers on silica beads; 150 mM NaCl, 20 mM Hepes, 0.5 mM TCEP, room temperature; acyl chains not given; avidity of dimer; read-out: apparent Kd. Type of assay: binding.

Assay [2] addresses T2, 2xPX (2xPX-GFP, tandem repeat of the SnxA PX domain) (Dictyostelium discoideum, UniProt Q54GY1).
T2 construct: gene DDB_G0289833; N-terminal 6xHis and eGFP kept; E. coli BL21; single population, apparent 104 kD by mass photometry
Described as above. Type of assay: binding. The following applies: 5 mol% phosphoinositide in 95 mol% POPC bilayers on silica beads; 150 mM NaCl, 20 mM Hepes, 0.5 mM TCEP, room temperature; acyl chains not given; avidity of tandem domains; read-out: apparent Kd.

Assay [3] deals with full-length SnxA, recombinant N-terminal 6xHis and eGFP fusion (Dictyostelium discoideum). Kind of assay: mass photometry; recombinant GFP fusions diluted to 25-50 nM in 250 mM NaCl, 20 mM Hepes, 0.5 M TCEP (so in the source) immediately before measurement; OneMP mass photometer; monomer to dimer.

With PI(3,5)P2, the Kd in assay [1] stood at 187 ± 13 nM; in assay [2], 218 ± 7 nM.

As to “full-length SnxA, recombinant N-terminal 6xHis and eGFP fusion (natural protein)”, in assay [3], the percent of the protein at the dimer's apparent mass is 85% and the stoichiometry N amounted to 2.
